Results: publication PMC11110756 (RSC Advances, 2024)
pIC50: −log10 of the molar value. Where two headings read alike, the source gives them in different places.

Key:
[1] = tested on: A549; assay: MTT assay, antiproliferative activity on lung cancer A549; assay type: cell-based, human; settings: for cytotoxicity level in words, A549: text grading
[2] = tested on: WI38; assay: MTT assay, cytotoxicity on normal lung fibroblast WI38; assay type: cell-based, human; settings: read-out: IC50 WI38
[3] = tested on: Caco-2; assay: MTT assay, antiproliferative activity on colorectal cancer Caco-2; assay type: cell-based, human; settings: for cytotoxicity level in words, Caco-2: text grading; for SI (CaCo-2): selectivity index WI38 vs CaCo-2
[4] = tested on: A549; settings: read-out: IC50 A549; reference drug; cited from earlier work
[5] = Homo sapiens, A549, read-out: IC50 A549
[6] = Homo sapiens, Caco-2, read-out: IC50 CaCo-2

SMILES	pIC50 [1, 5]	cytotoxicity level in words, A549 ([1]; MTT)	pIC50 ([2]; Homo sapiens, WI-38, 72 h)	pIC50 [3, 6]	cytotoxicity level in words, Caco-2 ([3]; MTT)	SI (CaCo-2) [3]	pIC50 ([1]; read-out: IC50 A549, MTT, lung cancer A549)	pIC50 ([2]; MTT, normal lung fibroblast WI38, 72 h)	pIC50 ([3]; read-out: IC50 CaCo-2, MTT, colorectal cancer Caco-2)	pIC50 [4]
O=C(O)Cn1cc(COc2ccccc2-c2nc(Cc3ccccc3)no2)nn1 [Compound 7b, 2-(4-((2-(3-Benzyl-1,2,4-oxadiazol-5-yl)phenoxy)methyl)-1H-1,2,3-triazol-1-yl)acetic acid]	4.07	weak to inactive	4.08	3.76	weak to inactive	0.48	–	–	–	–
CCOC(=O)Cn1cc(COc2ccccc2-c2nc(-c3ccccc3)no2)nn1 [Compound 5a, Ethyl 2-(4-((2-(3-phenyl-1,2,4-oxadiazol-5-yl)phenoxy)methyl)-1H-1,2,3-triazol-1-yl)acetate]	5.13	–	4.85	4.58	moderate	0.54	–	–	–	–
O=C(Cn1cc(COc2ccccc2-c2nc(Cc3ccccc3)no2)nn1)NNC(=S)Nc1ccccc1 [Compound 11b, 2-(2-(4-((2-(3-Benzyl-1,2,4-oxadiazol-5-yl)phenoxy)methyl)-1H-1,2,3-triazol-1-yl)acetyl)-N-phenylhydrazine-1-carbothioamide]	4.99	–	4.47	4.79	–	2.08	–	–	–	–
Cc1c(O)ncc(COP(=O)([O-])O)c1C=NNC(=O)Cn1cc(COc2ccccc2-c2nc(-c3ccccc3)no2)nn1.[Na+] [Compound 10a, Sodium-(6-hydroxy-5-methyl-4-((2-(2-(4-((2-(3-phenyl-1,2,4-oxadiazol-5-yl)phenoxy)methyl)-1H-1,2,3-triazol-1-yl)acetyl)hydrazonol)methyl)pyridin-3-yl)methyl hydrogen phosphate]	–	moderate	–	–	moderate	0.34	4.53	5.04	4.57	–
NC(=O)Cn1cc(COc2ccccc2-c2nc(Cc3ccccc3)no2)nn1 [Compound 6b, 2-(4-((2-(3-Benzyl-1,2,4-oxadiazol-5-yl)phenoxy)methyl)-1H-1,2,3-triazol-1-yl)acetamide]	5.45	–	4.80	4.94	–	1.38	–	–	–	–
COc1cc([C@@H]2c3cc4c(cc3[C@@H](O[C@@H]3O[C@@H]5CO[C@@H](C)O[C@H]5[C@H](O)[C@H]3O)[C@H]3COC(=O)[C@H]23)OCO4)cc(OC)c1O [etoposide]	–	–	–	–	–	–	–	–	–	5.51
O=C(O)Cn1cc(COc2ccccc2-c2nc(-c3ccccc3)no2)nn1 [Compound 7a, 2-(4-((2-(3-Phenyl-1,2,4-oxadiazol-5-yl)phenoxy)methyl)-1H-1,2,3-triazol-1-yl)acetic acid]	3.68	weak to inactive	4.65	4.01	weak to inactive	0.23	–	–	–	–
COc1cccc2c1C(=O)c1c(O)c3c(c(O)c1C2=O)C[C@@](O)(C(=O)CO)C[C@@H]3O[C@H]1C[C@H](N)[C@H](O)[C@H](C)O1 [Doxorubicin, reference compound]	6.00	–	5.36	5.89	–	3.32	–	–	–	–
O=C(Cn1cc(COc2ccccc2-c2nc(-c3ccccc3)no2)nn1)NN=Cc1ccccc1O [Compound 9a, N′-(2-Hydroxybenzylidene)-2-(4-((2-(3-phenyl-1,2,4-oxadiazol-5-yl)phenoxy)methyl)-1H-1,2,3-triazol-1-yl)acetohydrazide]	5.19	–	5.21	5.47	–	1.81	–	–	–	–
NNC(=O)Cn1cc(COc2ccccc2-c2nc(-c3ccccc3)no2)nn1 [Compound 8a, 2-(4-((2-(3-Phenyl-1,2,4-oxadiazol-5-yl)phenoxy)methyl)-1H-1,2,3-triazol-1-yl)acetohydrazide]	4.88	–	4.51	4.89	–	2.38	–	–	–	–
NC(=O)Cn1cc(COc2ccccc2-c2nc(-c3ccccc3)no2)nn1 [Compound 6a, 2-(4-((2-(3-Phenyl-1,2,4-oxadiazol-5-yl)phenoxy)methyl)-1H-1,2,3-triazol-1-yl)acetamide]	4.90	–	4.53	4.85	–	2.11	–	–	–	–
Cc1c(O)ncc(COP(=O)([O-])O)c1C=NNC(=O)Cn1cc(COc2ccccc2-c2nc(Cc3ccccc3)no2)nn1.[Na+] [Compound 10b, Sodium-(4-((2-(2-(4-((2-(3-benzyl-1,2,4-oxadiazol-5-yl)phenoxy)methyl)-1H-1,2,3-triazol-1-yl)acetyl)hydrazineylidene)methyl)-6-hydroxy-5-methylpyridin-3-yl)methyl hydrogen phosphate]	4.43	moderate	4.48	4.35	moderate	0.74	–	–	–	–
O=C(Cn1cc(COc2ccccc2-c2nc(Cc3ccccc3)no2)nn1)NN=Cc1ccccc1O [Compound 9b, 2-(4-((2-(3-Benzyl-1,2,4-oxadiazol-5-yl)phenoxy)methyl)-1H-1,2,3-triazol-1-yl)-N'-(2-hydroxybenzylidene)acetohydrazide]	5.60	–	5.67	5.54	–	0.73	–	–	–	–
NNC(=O)Cn1cc(COc2ccccc2-c2nc(Cc3ccccc3)no2)nn1 [Compound 8b, 2-(4-((2-(3-Benzyl-1,2,4-oxadiazol-5-yl)phenoxy)methyl)-1H-1,2,3-triazol-1-yl)acetohydrazide]	5.37	–	5.44	5.35	–	0.81	–	–	–	–
CCOC(=O)Cn1cc(COc2ccccc2-c2nc(Cc3ccccc3)no2)nn1 [Compound 5b, Ethyl 2-(4-((2-(3-benzyl-1,2,4-oxadiazol-5-yl)phenoxy)methyl)-1H-1,2,3-triazol-1-yl)acetate]	4.98	–	4.71	4.32	moderate	0.41	–	–	–	–
O=C(Cn1cc(COc2ccccc2-c2nc(-c3ccccc3)no2)nn1)NNC(=S)Nc1ccccc1 [Compound 11a, N-Phenyl-2-(2-(4-((2-(3-phenyl-1,2,4-oxadiazol-5-yl)phenoxy)methyl)-1H-1,2,3-triazol-1-yl)acetyl)hydrazine-1-carbothioamide]	4.91	–	4.67	4.49	moderate	0.67	–	–	–	–
